Biological target: T1, TRPV1 (Homo sapiens, UniProt Q8NER1)
T1 construct: expressed in transfected cells
Test: Manual patch clamp detection on TRPV1 channel
Format: cell-based
Details: HEK293, Capsaicin-induced current
Procedure: TRPV1 cells were cultured in a cell culture dish with a diameter of 35 mm, placed in a 37° C., 5% CO2 incubator, and passaged at a ratio of 1:5 every 48 hours. Medium formula: 90% DMEM (Invitrogen), 10% Fetal bovine serum (Gibco). 2 mM L-glutamine, 50 μg/mL Hygromycin B (Invitrogen) and 5 μg/mL Blasticidine HCl (Invitrogen). Before electrophysiological patch clamp experiments, the cell culture medium was replaced with medium containing 1 μg/mL Doxycycline for at least 16 hours to induce the expression of TRPV1.
On the day of the experiment, the cell culture medium was aspirated, the cell were rinsed once with extracellular fluid, and then 0.25% Trypsin-EDTA (Invitrogen) solution was added, and digested at room temperature for 1-2 minutes. The digestion solution was aspirated, the cell were resuspended with extracellular fluid, and transferred to the experimental dish for electrophysiological recording for further experiment. […]
HEK293 cells stably expressing TRP channels, the corresponding agonist-induced channel current was recorded by whole-cell patch clamp technique at room temperature. […] Clamp voltages and data recording were controlled and recorded by a computer using pClamp 11 software with the sampling frequency of 10 kHz and the filtering frequency of 2 kHz. […] After the current was evoked for more than 40 s and no attenuation was determined, the dosing process started. […]

T1 sequence (Q8NER1 whole entry, species assumed): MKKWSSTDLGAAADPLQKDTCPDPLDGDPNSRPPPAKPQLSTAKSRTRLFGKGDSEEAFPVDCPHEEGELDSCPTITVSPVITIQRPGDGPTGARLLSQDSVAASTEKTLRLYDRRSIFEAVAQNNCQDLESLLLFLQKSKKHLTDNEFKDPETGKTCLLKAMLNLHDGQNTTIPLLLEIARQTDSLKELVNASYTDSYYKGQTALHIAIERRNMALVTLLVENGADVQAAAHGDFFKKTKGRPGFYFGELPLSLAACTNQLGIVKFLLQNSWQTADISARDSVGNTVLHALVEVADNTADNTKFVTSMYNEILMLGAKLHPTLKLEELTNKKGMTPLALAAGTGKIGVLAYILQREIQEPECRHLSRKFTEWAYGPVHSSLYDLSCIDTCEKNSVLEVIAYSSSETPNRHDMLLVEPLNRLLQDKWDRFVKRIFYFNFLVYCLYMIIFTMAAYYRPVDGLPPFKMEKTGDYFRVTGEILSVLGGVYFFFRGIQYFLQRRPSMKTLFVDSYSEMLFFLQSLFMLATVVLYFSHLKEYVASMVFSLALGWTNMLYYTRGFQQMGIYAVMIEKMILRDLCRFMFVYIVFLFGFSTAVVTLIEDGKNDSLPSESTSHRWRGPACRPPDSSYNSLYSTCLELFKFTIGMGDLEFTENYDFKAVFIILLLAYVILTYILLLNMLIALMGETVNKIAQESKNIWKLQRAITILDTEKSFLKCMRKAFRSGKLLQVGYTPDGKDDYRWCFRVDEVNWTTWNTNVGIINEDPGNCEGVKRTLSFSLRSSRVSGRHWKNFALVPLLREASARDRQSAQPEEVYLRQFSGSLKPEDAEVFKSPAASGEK

inhibition at 10 µM: 22.5%
Structure (SMILES): CNCC[C@H](Oc1cccc2ccoc12)c1cccs1 [IC-1, (S)-3-(Benzofuran-7-yloxy)-N-methyl-3-(thiophen-2-yl)propan-1-amine]
